From ChEMBL document CHEMBL3769371, “1-[(2E)-3-Phenylprop-2-enoyl]-1H-benzimidazoles as anticancer agents: synthesis, crystal structure analysis and binding studies of the most potent anticancer molecule with serum albumin” (Medchemcomm, 2015)

What was measured:
[1] = Cytotoxicity against human SF268 cells after 48 hrs by SRB assay; format: functional; conditions: SF-268, 48 h
[2] = Cytotoxicity against human UO31 cells after 48 hrs by SRB assay; format: functional; conditions: UO-31, 48 h
[3] = Cytotoxicity against human MOLT4 cells after 48 hrs by SRB assay; format: functional; conditions: MOLT-4, 48 h
[4] = Cytotoxicity against human HOP62 cells assessed as cell growth at 10^-5 M after 48 hrs by SRB assay; format: functional; conditions: HOP-62, 48 h, read-out: Activity
KM12 = assay: Cytotoxicity against human KM12 cells after 48 hrs by SRB assay; format: functional; conditions: KM12, 48 h
[5] = Cytotoxicity against human SW620 cells after 48 hrs by SRB assay; format: functional; conditions: SW-620, 48 h
[6] = Cytotoxicity against human RPMI8226 cells after 48 hrs by SRB assay; format: functional; conditions: RPMI-8226, 48 h
[7] = Cytotoxicity against human HCT116 cells after 48 hrs by SRB assay; format: functional; conditions: HCT-116, 48 h
Albumin [8] = biological target: T1, Albumin (Homo sapiens, UniProt P02768); assay: Binding affinity to human serum albumin at 0.25 to 2 uM at 303 K by fluorescence microscopic analysis in the presence of phenylbutazone; format: ADME; conditions: isolated protein
T1 sequence (P02768 whole entry): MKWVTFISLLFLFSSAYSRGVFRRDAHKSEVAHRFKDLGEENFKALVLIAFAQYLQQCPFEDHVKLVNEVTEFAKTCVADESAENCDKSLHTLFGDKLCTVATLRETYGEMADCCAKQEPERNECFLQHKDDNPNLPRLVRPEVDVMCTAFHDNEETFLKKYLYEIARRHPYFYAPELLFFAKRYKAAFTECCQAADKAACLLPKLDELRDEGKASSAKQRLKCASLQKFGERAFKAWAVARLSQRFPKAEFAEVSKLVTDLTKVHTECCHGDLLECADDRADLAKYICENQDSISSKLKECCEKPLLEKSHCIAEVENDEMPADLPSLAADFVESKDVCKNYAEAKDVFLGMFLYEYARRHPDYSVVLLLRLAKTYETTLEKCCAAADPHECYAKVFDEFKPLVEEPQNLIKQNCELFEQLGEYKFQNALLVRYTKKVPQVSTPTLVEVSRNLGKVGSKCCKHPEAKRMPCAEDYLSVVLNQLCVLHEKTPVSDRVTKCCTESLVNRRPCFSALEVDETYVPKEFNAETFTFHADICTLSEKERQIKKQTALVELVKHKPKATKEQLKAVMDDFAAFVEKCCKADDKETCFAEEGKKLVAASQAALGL

SK-MEL-5 = assay: Cytotoxicity against human SK-MEL-5 cells assessed as cell growth at 10^-5 M after 48 hrs by SRB assay; format: functional; conditions: SK-MEL-5, 48 h, read-out: Activity
[9] = Cytotoxicity against human PC3 cells after 48 hrs by SRB assay; format: functional; conditions: PC-3, 48 h
MDA-MB-231 = assay: Cytotoxicity against human MDA-MB-231 cells assessed as cell growth at 10^-5 M after 48 hrs by SRB assay; format: functional; conditions: MDA-MB-231, 48 h, read-out: Activity
Albumin [10] = biological target: T1, Albumin; assay: Binding affinity to human serum albumin at 0.25 to 2 uM at 303 K by fluorescence microscopic analysis in the presence of ibuprofen; format: ADME; conditions: isolated protein
[11] = Cytotoxicity against human Caki1 cells assessed as cell growth at 10^-5 M after 48 hrs by SRB assay; format: functional; conditions: CAKI-1, 48 h, read-out: Activity
NCI-H460 [12] = assay: Cytotoxicity against human NCI-H460 cells after 48 hrs by SRB assay; format: functional; conditions: NCI-H460, 48 h
[13] = Antiproliferative activity against human SNB75 cells at 10'5 M; format: functional, SNB-75
[14] = Antiproliferative activity against human TK10 cells at 10'5 M; format: functional, TK-10
MCF7 = assay: Cytotoxicity against human MCF7 cells after 48 hrs by SRB assay; format: functional; conditions: MCF7, 48 h
[15] = Cytotoxicity against human COLO205 cells assessed as cell growth at 10^-5 M after 48 hrs by SRB assay; format: functional; conditions: COLO 205, 48 h, read-out: Activity
NCI-H23 = assay: Cytotoxicity against human NCI-H23 cells assessed as cell growth at 10^-5 M after 48 hrs by SRB assay; format: functional; conditions: NCI-H23, 48 h, read-out: Activity
Albumin [16] = biological target: T1, Albumin; assay: Binding affinity to human serum albumin at 0.25 to 2 uM at 303 K by fluorescence microscopic analysis in the absence of site probes; format: ADME; conditions: isolated protein
NCI-H460 [17] = assay: Antiproliferative activity against human NCI-H460 cells at 10'5 M; format: functional
U-251 [18] = assay: Cytotoxicity against human U251 cells assessed as cell growth at 10^-5 M after 48 hrs by SRB assay; format: functional; conditions: U-251, 48 h, read-out: Activity
[19] = Cytotoxicity against human TK10 cells after 48 hrs by SRB assay; format: functional; conditions: TK-10, 48 h
[20] = Cytotoxicity against human BT549 cells after 48 hrs by SRB assay; format: functional; conditions: BT-549, 48 h
Malme-3M [21] = assay: Cytotoxicity against human MALME-3M cells after 48 hrs by SRB assay; format: functional
[22] = Cytotoxicity against human OVCAR3 cells after 48 hrs by SRB assay; format: functional; conditions: OVCAR-3, 48 h
Malme-3M [23] = assay: Antiproliferative activity against human MALME-3M cells at 10'5 M; format: functional
Albumin [24] = biological target: T1, Albumin; assay: Binding affinity to human serum albumin at 0.25 uM at 303 K by fluorescence microscopic analysis in the presence of Ni2+; format: ADME; conditions: isolated protein
[25] = Cytotoxicity against human RXF393 cells after 48 hrs by SRB assay; format: functional; conditions: RXF 393, 48 h
[26] = Cytotoxicity against human COLO205 cells after 48 hrs by SRB assay; format: functional; conditions: COLO 205, 48 h
[27] = Cytotoxicity against human NCI-ADR-RES cells after 48 hrs by SRB assay; format: functional
T47D = assay: Cytotoxicity against human T47D cells after 48 hrs by SRB assay; format: functional
U-251 [28] = assay: Cytotoxicity against human U251 cells after 48 hrs by SRB assay; format: functional; conditions: U-251, 48 h
[29] = Cytotoxicity against human HCC2998 cells assessed as cell growth at 10^-5 M after 48 hrs by SRB assay; format: functional; conditions: HCC 2998, 48 h, read-out: Activity
Albumin [30] = biological target: T1, Albumin; assay: Binding affinity to human serum albumin at 0.25 to 2 uM at 303 K by fluorescence microscopic analysis in the presence of digitoxin; format: ADME; conditions: isolated protein
[31] = Cytotoxicity against human SNB75 cells after 48 hrs by SRB assay; format: functional; conditions: SNB-75, 48 h
K562 = assay: Cytotoxicity against human K562 cells assessed as cell growth at 10^-5 M after 48 hrs by SRB assay; format: functional; conditions: K562, 48 h, read-out: Activity
Albumin [32] = biological target: T1, Albumin; assay: Binding affinity to human serum albumin assessed as fluorescence quenching in steady state at 0.25 uM at 303 K by fluorescence microscopic analysis; format: ADME; conditions: isolated protein
[33] = read-out: LC50 (the source's name)

O=C(/C=C/c1ccccc1)n1c(-c2ccc(Cl)cc2)nc2ccccc21
GI50 [1]: 1.45 µM | TGI [1]: 5.03 µM | CC50 [1, 33]: 27.9 µM | GI50 [2]: 1.1 µM | TGI [2]: 3.55 µM | CC50 [2, 33]: 12.9 µM | GI50 [3]: 1.13 µM | TGI [3]: 6.73 µM | CC50 [3, 33]: > 100 µM | growth at 10 µM [4]: -48.8% | GI50 (KM12): 1.51 µM | TGI (KM12): 3.71 µM | CC50 (KM12; [33]): 9.16 µM | GI50 [5]: 1.44 µM | TGI [5]: 2.93 µM | CC50 [5, 33]: 5.97 µM | GI50 [6]: 0.61 µM | TGI [6]: 3.82 µM | CC50 [6, 33]: > 100 µM | GI50 [7]: 1.8 µM | TGI [7]: 3.45 µM | CC50 [7, 33]: 6.61 µM | K (Albumin [8]): 3.5 ×10³ /M | growth at 10 µM (SK-MEL-5): -70.6% | GI50 [9]: 1.91 µM | TGI [9]: 6.73 µM | CC50 [9, 33]: 36.3 µM | growth at 10 µM (MDA-MB-231): -26.5% | K (Albumin [10]): 5.63 ×10³ /M | growth at 10 µM [11]: -39.5% | GI50 (NCI-H460 [12]): 1.96 µM | TGI (NCI-H460 [12]): 6.52 µM | CC50 (NCI-H460 [12]; [33]): 25.5 µM | growth inhibition (GI) [13]: 81.93% | growth inhibition (GI) [14]: 81.42% | GI50 (MCF7): 1.01 µM | TGI (MCF7): 9.92 µM | CC50 (MCF7; [33]): 55.5 µM | growth at 10 µM [15]: -60.8% | growth at 10 µM (NCI-H23): -24.5% | K (Albumin [16]): 5.68 ×10³ /mol | growth inhibition (GI) (NCI-H460 [17]): 99.46% | growth at 10 µM (U-251 [18]): -0.39% | GI50 [19]: 2.35 µM | TGI [19]: 7.93 µM | CC50 [19, 33]: 28 µM | GI50 [20]: 1.67 µM | TGI [20]: 3.22 µM | CC50 [20, 33]: 6.18 µM | GI50 (Malme-3M [21]): 0.59 µM | TGI (Malme-3M [21]): 1.91 µM | CC50 (Malme-3M [21]; [33]): 4.77 µM | GI50 [22]: 1.95 µM | TGI [22]: 4.63 µM | CC50 [22, 33]: 13.4 µM | growth inhibition (GI) (Malme-3M [23]): 84.12% | K (Albumin [24]): 5.35 ×10³ /mol | GI50 [25]: 1.32 µM | TGI [25]: 3.12 µM | CC50 [25, 33]: 7.37 µM | GI50 [26]: 1.23 µM | TGI [26]: 2.64 µM | CC50 [26, 33]: 5.65 µM | GI50 [27]: 0.75 µM | TGI [27]: 10.3 µM | CC50 [27, 33]: 62.1 µM | GI50 (T47D): 1.73 µM | TGI (T47D): 7.68 µM | CC50 (T47D; [33]): 57.5 µM | GI50 (U-251 [28]): 1.44 µM | TGI (U-251 [28]): 3.77 µM | CC50 (U-251 [28]; [33]): 9.91 µM | growth at 10 µM [29]: 5.08% | K (Albumin [30]): 5.73 ×10³ /M | GI50 [31]: 3.13 µM | TGI [31]: 12.8 µM | CC50 [31, 33]: 40.5 µM | growth at 10 µM (K562): 39.8% | K (Albumin [32]): 5.68 ×10³ /mol
